Bounds are passed on as bounds.

Compound `CC(C)CN1C(=O)[C@@H](CCCl)O[C@H](c2ccccc2Cl)c2cc(Cl)ccc21` (relative stereo) yielded a melting point of 138 to 140 °C.
`CC(C)C(=O)Nc1ccc(I)c(C(F)(F)F)c1` registered a melting point of 143 to 145 °C.
The result for `CCc1cccc(C)c1CNc1c(NC(C)(C)C)c(=O)c1=O` reads 240 to 244 °C.
With `CC(C)(O)C(=O)c1ccc(C(O)c2ccc(C(=O)C3(O)CCCCC3)cc2)cc1` (stereo unspecified), the melting point was in the range of 115 to 118 °C.
For `COc1c(C)c(=O)oc2cc(-c3nnc(C)s3)ccc12` the value was 177 °C; for `O=C(O)c1ccccc1-c1cc(-c2ccccc2)on1`, 144 to 146 °C; for `O=C1N(CO)OCCN1c1ccc(Cl)c(Cl)c1`, 134 °C.
The result for `O=c1c2c(CC3CCOCC3)n[nH]c2c2cccnc2n1-c1ccccc1` reads 228 to 234 °C; that for `COc1nc(C)c(C)nc1NC(=O)N1CCN(c2ccccc2C(C)C)CC1`, 165 to 167 °C.
The result for `C=C(Cl)c1c(C(F)(F)F)nc(C)[nH]c1=O` reads 164 to 166 °C; that for `COc1ccc(S(C)=O)cc1C(=O)O` (stereo unspecified), 114 to 116 °C; that for `Cc1oc(-c2ccc(S(C)(=O)=O)cc2)c(Oc2ccc(Cl)cc2)c(=O)c1Br`, 251 °C.
On to `CN(C)C(=O)Nc1coc2ccccc2c1=O`, for which the melting point was found to be 148 °C.
For `Cc1cc(F)cc2[nH]c(=O)c(=O)[nH]c12`, the melting point was greater than 300 °C.
The result for `COc1cc(C(=O)CCCc2ccccc2)ccc1OCc1ccccc1` reads 81 to 82 °C; that for `CCc1ccc(N(C(=O)CCl)c2c(F)c(F)cc(F)c2F)cc1`, 72 °C; that for `Oc1c(CCl)cc(F)cc1CCl`, 70 °C.
`CCCCC(=O)NC(C#N)C(=O)OCC` (stereo unspecified) yielded a melting point of 88 °C.
For `CCCc1c(C(=O)N2CCOCC2)c2ccc(C(N)=O)cc2n1Cc1ccccc1Cl` the value was 229 to 230 °C.
On to `NC(=S)c1nccc(F)c1Cn1ccnc1`, for which the melting point was 154 to 156 °C.
In the case of `CC(C)Oc1nc(C#N)c(C#N)nc1Cl`, the melting point lay in the range of 48.5 to 50 °C.
`NS(=O)(=O)c1cccc(NC(=O)c2cnn3c(C(F)(F)F)cc(-c4ccc(C(F)(F)F)c(F)c4)nc23)c1`: the melting point was 259 °C.
For `C=CCOc1cc(OCc2ccc3ccccc3c2)cc(C(=O)c2nccs2)c1`, the melting point is 65 to 67 °C.
Consider `c1ccc(NCc2nccc(-c3ccc(-c4ccc(N(c5ccccc5)c5ccccc5)cc4)cc3)n2)cc1`, for which the melting point is 200 to 201 °C.
The compound `COc1ccccc1-c1ccc(C(=O)N2Cc3cccn3Cc3ccccc32)cc1C` showed a melting point of 133 to 135 °C.
For `COCc1c(C(=O)OC(C)C)ncc2[nH]c3cccc(Oc4ccccn4)c3c12` the value was 188 to 189 °C; for `C#CCNC(=O)N1CC(Oc2ccc(C(F)(F)F)cc2)C1`, 135 to 137 °C.
For `COc1ccccc1COc1ccc(S(=O)(=O)c2ccc(C)nc2Nc2cc(F)c(N(C)C)cc2Cl)cc1` the value was 68 to 70 °C; for `CC(=O)CSc1nc2ccccc2[nH]1`, 112 to 113 °C; for `O=C(O)c1ccc2cc(OCCN3CCN(c4ccc(Cl)cc4)CC3)ccc2c1`, 197 to 199 °C.
`O=C(O)CN(CC(=O)O)c1cc(OCCCCCCCCCCCCOc2ccccc2)cc(OCCCCCCCCCCCCOc2ccccc2)c1` returned a melting point of 72 to 74 °C.
For `CC(C)(C)c1nc(C=O)cc(N)c1F` the value was 129 to 130 °C.
In turn, `Cc1cc2c(=O)c(N3CCC(O)(c4ccc(F)cc4)CC3)coc2cc1OCc1ccccc1` gave a melting point of 245 to 246 °C.
For `CC(C)(C)OC(=O)NC(C(=O)O)c1c[nH]c2ccccc12` (stereo unspecified) the value was 144 °C; for `CC1CCc2ccc(OCC(O)CNC3CCCCC3)cc2O1` (stereo unspecified), 97 to 99 °C; for `COc1cc2c(cc1OC)C(c1ccccc1)N(C(=O)NCCN1CCCCC1)CC2` (stereo unspecified), 101 to 102 °C.
Take `Cn1c(=O)[nH]c2nc3ccc(OCCCC(=O)O)cc3cc21`: the melting point fell in the range of 286 to 288 °C.
For `COc1ccc(-c2nn(Cc3ccc(Cl)cc3)c(=S)cc2-c2ccncc2)cc1` the value was 144 to 145 °C; for `Cc1c(Cc2cccc(C(F)(F)F)c2)oc2c(-c3cccc(C(=O)NCCC#N)c3)cccc12`, 158 to 159 °C.
For `Cc1nc2sccn2c(=O)c1CCN1CCC(c2noc3cc(F)ccc23)CC1` the value was 165 °C.
For `N#CCCNC(=O)c1cccc(-c2cccc3oc(Cc4cccc(C(F)(F)F)c4)nc23)c1` the value was 117 to 118 °C; for `N#Cc1ccc2c(c1)N(C1CC1)C=NS2(=O)=O`, 273 to 276 °C.
`O=C(CCN1CCN(c2ccc3c(c2)OCO3)CC1)c1csc2ccc(F)cc12` gave a melting point of 84 to 86 °C.
The result for `O=C(Nc1ccc(C(=O)Oc2ccccc2)c(Cl)c1)NS(=O)(=O)c1ccccc1` reads 183 to 185 °C.
For `COCC(COC)Nc1cc(C)nn2c(-c3ccc(Cl)cc3Cl)c(C)cc12` the value was 154 to 155 °C; for `CC(CSC(=O)c1ccco1)C(=O)N1CCCC1C(=O)O` (mixture of isomers), 132 to 140 °C.
The result for `CC1=C(c2ccc(O)cc2)C(=O)c2cc(O)ccc21` reads 125 to 129 °C.
For `CCCCC1(COC(=O)C(C)(C)C)C(=O)N(c2ccccc2)N(c2ccccc2)C1=O`, the melting point lay within 116 to 117 °C.
`CC(=O)NC(C)Cc1ccc(OC(C)=O)cc1` (stereo unspecified) had a melting point of 97.5 to 99 °C.
With `COc1cnccc1-c1csc(Cc2ccccc2)n1`, the melting point lay within 76 to 77 °C.
For `CCOC(=O)c1cn(-c2cc(N(C)C(=O)OC(C)(C)C)c(F)cc2F)c2c(C)c(F)c(F)cc2c1=O` the value was 217 to 218 °C; for `CCCn1c(=O)c2[nH]c(-c3cc(C)n(CC(=O)Nc4ccccc4)n3)nc2n(CCC)c1=O`, 255 to 257 °C; for `COc1ccc2[nH]cc(CC3=CCCN(CCCC(=NO)c4ccc(F)cc4)C3)c2c1`, 129 to 130 °C.
Consider `O=C(Nc1ccc([N+](=O)[O-])cc1)N1CCN(c2ncnc3ccccc23)CC1`, for which the melting point fell in the range of 155 to 158 °C.
For `CCOC(=O)C1(CC(=O)O)C(=O)N(Cc2ccc(Br)cc2F)C(=O)c2cccn21` (stereo unspecified) the value was 142 to 144 °C.
`COc1cc2c(cc1Nc1ncc3ccc(-c4ccccc4OC)n3n1)CN(C)C2` displayed a melting point of 136 to 141 °C.
In turn, `CCOc1ccccc1C(=O)Nc1ccc(C(=O)N2Cc3cccn3Cc3ccccc32)cc1` returned a melting point of 160 to 176 °C.
The compound `CC(C)(C)c1cc(SC2CC(=O)N(c3ccc(N4C(=O)CC(Sc5cc(C(C)(C)C)c(O)c(C(C)(C)C)c5)C4=O)cc3)C2=O)cc(C(C)(C)C)c1O` (stereo unspecified) yielded a melting point of 274 to 278 °C.
In turn, `COC(=O)CCCc1cc2nc(Cl)ccc2n1S(=O)(=O)c1ccc(F)c([N+](=O)[O-])c1` registered a melting point of 129 to 131 °C.
`Cn1c(C(=O)c2ccc(F)cc2)cc2cc(Br)ccc21`: the melting point was 162 to 164 °C.
`COc1ccc2c(c1)c(CC(N)=O)c(C)n2Cc1ccc(OCc2ccccc2)cc1` came in with a melting point of 155 to 157 °C.

The values above are taken from a melting point compilation (Tetko et al.; mined from patent text by program, amines drawn as free bases though some values may be those of a salt).
